In patent US11225642B2, “Method for producing renal progenitor cells” (KYOTO UNIVERSITY, priority 2013, dated 2022):

Test system: OSR1-positive cells sorted from OSR1-GFP & SIX2-tdTomato reporter human iPS cell line
Test: SIX2-positive cell induction method 3, SIX2-tdTomato-positive cell rate by flow cytometer
Type: cell-based
Conditions: stage 3 medium with 5 ng/ml TGFβ1 and 0.5 μM Dorsomorphin
Protocol: The OSR1-GFP & SIX2-tdTomato reporter human iPS cell line obtained by the method in Example 1 was cultured in the manner described in stage 1 of induction method 1 to become confluent in 10-cm dishes using SNL cells as feeder cells. A CTK solution was added to dissociate the cells. After removal of the feeder cells, Accutase™ (Innovative Cell Technologies, AT-104) was added to disperse iPS cells to result in single cells. Then, the obtained cells were suspended in a DMEM/F12 medium containing 10 μM Y-27632 (Wako, 253-00513), 1 μM CHIR99021, 1 μM TTNPB, 1% GlutaMAX (100×), 2% FBS, and 0.5% PenStrep. The obtained cell suspensions (1×10^5 cells/well (for a 96-well dish)) were transferred to a dish coated with 0.1% gelatin (Gelatin from porcine skin, Type A (Sigma, G1890)), followed by adhesion culture at 37° C. in a 5% CO2 atmosphere for 2 days.
The cells obtained at stage 1 were washed with PBS. The medium was exchanged with a DMEM/F12 medium containing 1 μM TTNPB, 0.1% 2-mercaptoethanol (1000×), 1% GlutaMAX (100×), 10% KnockOut SR, 0.1 mM MEM NEAA, and 0.5% PenStrep, followed by adhesion culture at 37° C. in a 5% CO2 atmosphere for 3 to 9 days. In this case, the medium was exchanged every 3 days with a medium having the same conditions.
Accutase™ was added to cells obtained at stage 2 to dissociate the cells. […]

Compound | SIX2-tdTomato-positive cell rate
c1cc(-c2cnn3cc(-c4ccc(OCCN5CCCCC5)cc4)cnc23)ccn1 [Dorsomorphin, 6-[4-(2-piperidin-1-yl-ethoxy)phenyl]-3-pyridin-4-yl-pyrazolo[1,5-a]pyrimidine] | 31.1±10.0%
TGFβ1: TGFβ signaling activator protein (Peprotech) | 31.1±10.0%
